Reference: ChEMBL document CHEMBL1148941, “A new glucosyl feruloyl quinic acid as a potential marker for roots and rhizomes of goldenseal, Hydrastis canadensis” (2004)

System: Staphylococcus aureus
Experiment: Antimicrobial activity against methicillin-resistant Staphylococcus aureus 1126 after 24 hrs
Format: functional

SMILES: COc1cc(/C=C/C(=O)O[C@@H]2C[C@](O)(C(=O)O)C[C@@H](O)[C@H]2O)ccc1O[C@@H]1O[C@H](CO)[C@@H](O)[C@H](O)[C@H]1O
- MIC: > 1000 µg/mL

SMILES: COc1ccc2cc3[n+](cc2c1OC)CCc1cc2c(cc1-3)OCO2.[Cl-] [BERBERINE CHLORIDE]
- MIC: 60 µg/mL
